Assay results reported in patent EP3024823B1, “INTERCALATING AMINO ACIDS” (priority 2013, dated 2015).
≈ marks a conversion by molar mass, not a printed value.

Legend:
[1] = target: T1, PylRS_AF (Methanosarcina mazei, UniProt Q8PWY1, Y306A/Y384F); assay: PylRS_AF-mediated amber suppression in GFP-Y39TAG (GFP expression in E. coli); format: cell-based; conditions: for expression of full-length GFP by cellular fluorescence / GFP expression, SDS PAGE of Ni-NTA-purified GFP / yield of purified GFP-Y39→ncAA: E. coli; for expression of full-length GFP by cellular fluorescence / yield of purified GFP-Y39→ncAA: PylRS_AF; for GFP expression, SDS PAGE of Ni-NTA-purified GFP: pREP-PylRS_AF, pBAD_GFP-Y39TAG; for efficiency and accuracy of incorporation into peptides: Figure 2, whole cell fluorescence
T1 construct: expressed in transfected cells
Excerpt: (§1) Protein Expression and Purification. All proteins were expressed from pBAD vectors and purified using a C-terminal His6 tag. For expression of proteins containing ncAA, E. coli cells were co-transformed with pBAD plasmid containing the target gene with amber codon (pBAD_GFP-39TAG, pBAD_TRX-R74-His6_TAG, pBAD_CmodC or pBAD_TAT, all conferring ampicillin resistance) and a plasmid coding for the respective PylRS mutant and tRNA^Pyl (pEVOL_PylRS_AF, pREP_PylRS_wt, _GF, _AF and PylRS_AF single or double alanine mutants). A single clone was picked and grown in Luria Broth (LB) media supplemented with suited antibiotics at 37 °C and 200 rpm shaking. 0.1 ml of this culture was used to inoculate 5 ml LB supplemented with the same antibiotics and different concentrations of the ncAA. The culture was incubated at 37 °C and 200 rpm shaking until OD600 of ∼0.4 - 0.6 and protein expression was induced with 0.02% (w/v) L-arabinose. The culture was harvested after 4 - 6 h of incubation by centrifugation (10 min, 3320 x g, room temperature). The pellet was lysed with B-Per lysis reagent (Thermo scientific) containing 1x Complete (-EDTA) protease inhibitor cocktail (Roche) and shaking at room temperature at 1400 rpm for 30 min. The suspension was pelleted by centrifugation (5 min, 20817 x g, room temperature) the supernatant was extracted with Ni-NTA agarose slurry (Qiagen) at an imidazole concentration of 10 mM by shaking at room temperature. The beads were washed with 350 µl 4x PBS and or two wash buffers (50 mM NaH2PO4, 300 mM NaCl, pH = 8.0, containing 20 - 50 mM imidazole). Proteins were eluted with elution buffer (50 mM NaH2PO4, 300 mM NaCl, pH = 8.0, containing 500 mM imidazole). For GFP-TAT protein containing ncAA 6, expressions were carried out in BL21 (DE3) gold and purification was conducted as above, but under denaturing conditions (8 M urea). Protein was refolded by stepwise dialysis against 20 mM Tris-HCl, pH = 8.0, 10 % glycerole with decreasing urea concentrations. Purity of the obtained proteins was analyzed by SDS PAGE and staining with Gelcode blue (Thermo Scientific) and quantified using a BCA assay (Pierce, Thermo Scientific). For GFP yield determination based on whole cell fluorescence, cell pellets from 3 ml expressions were washed twice with 3 ml 4x PBS (by centrifugation for 10 min at 3320 x g at room temperature and resuspension) and fluorescence was determined using a Tecan M200 plate reader using and excitation wavelength of 475 nm and an emission wavelength of 510 nm. Fluorescence values were corrected for cell densities based on OD600 - measurements. Generally, expressions were carried out in E. coli Top10 using carbenicillin selection for pEVOL plasmids and tetracyclin selection for pREP plasmids. Wild type thioredoxin and TRX-R74→6 were expressed in E. coli BL21 (DE3) gold cells. Expressed C-terminal fragment of PylRS_AF (aa 188-454) was stored in 10 mM HEPES-Na+, pH = 7.5, 5 mM MgCl2, 300 mM NaCl at -80 °C before use.
Next, the tRNA^Pyl/PylRS pair of Methanosarcina mazei was analyzed for its capability to mediate the selective incorporation of ncAA 3 into proteins in E. coli in response to the amber codon, TAG. E. coli were co-transformed with plasmids pEVOL-PylRS_wt (encoding wild type M. mazei PylRS and tRNA^Pyl) and pBAD_GFP-39TAG (encoding GFP with an amber mutation at position Y39 and a C-terminal His6 tag) and the culture induced with L-arabinose in the presence or absence of 1 mM ncAA 3 or Nε-(tert-butyloxycarbonyl)-L-lysine (Boc-Lys, ncAA 2), which is an efficiently processed substrate of PylRS_wt. However, expression of full-length GFP was only detected for ncAA 2 by cellular fluorescence. […] Among amino acids that constitute the methyl-pyrroline binding pocket of PylRS, Y306 is a main component of the rear part and plays a critical role in discriminating against larger, Nε-carbamate-linked lysine derivatives. […]

[2] = target: T2, PylRS_wt (Methanosarcina mazei, UniProt Q8PWY1); assay: PylRS_wt-mediated amber suppression in GFP-Y39TAG (GFP expression in E. coli); format: cell-based; conditions: for expression of full-length GFP by cellular fluorescence: pEVOL-PylRS_wt, pBAD_GFP-39TAG, 1 mM ncAA; for GFP expression, SDS PAGE of Ni-NTA-purified GFP: pREP-PylRS_wt, pBAD_GFP-Y39TAG
T2 construct: expressed in transfected cells
Excerpt: as §1, with “Protein was refolded by stepwise dialysis against 20 mM Tris-HCl, pH = 8.0, 10 % glycerole with decreasing urea concentrations.” left out, “Generally, expressions were carried out in E. coli Top10 using carbenicillin selection for pEVOL plasmids and tetracyclin selection for pREP plasmids. Wild type thioredoxin and TRX-R74→6 were expressed in E. coli BL21 (DE3) gold cells. Expressed C-terminal fragment of PylRS_AF (aa 188-454) was stored in 10 mM HEPES-Na+, pH = 7.5, 5 mM MgCl2, 300 mM NaCl at -80 °C before use.” left out
Next, the tRNA^Pyl/PylRS pair of Methanosarcina mazei was analyzed for its capability to mediate the selective incorporation of ncAA 3 into proteins in E. coli in response to the amber codon, TAG. […] However, expression of full-length GFP was only detected for ncAA 2 by cellular fluorescence. […]

[3] = target: T3, PylRS_AF_D408A (Methanosarcina mazei, UniProt Q8PWY1, D408A/Y306A/Y384F); assay: PylRS_AF D408A-mediated amber suppression in GFP-Y39TAG (cellular GFP expression in E. coli); format: cell-based; conditions: pREP_PylRS_AF_D408A, pBAD_GFP-39TAG
T3 construct: expressed in transfected cells
Excerpt: (§2) Protein Expression and Purification. All proteins were expressed from pBAD vectors and purified using a C-terminal His6 tag. For expression of proteins containing ncAA, E. coli cells were co-transformed with pBAD plasmid containing the target gene with amber codon (pBAD_GFP-39TAG, pBAD_TRX-R74-His6_TAG, pBAD_CmodC or pBAD_TAT, all conferring ampicillin resistance) and a plasmid coding for the respective PylRS mutant and tRNA^Pyl (pEVOL_PylRS_AF, pREP_PylRS_wt, _GF, _AF and PylRS_AF single or double alanine mutants). A single clone was picked and grown in Luria Broth (LB) media supplemented with suited antibiotics at 37 °C and 200 rpm shaking. 0.1 ml of this culture was used to inoculate 5 ml LB supplemented with the same antibiotics and different concentrations of the ncAA. […] Purity of the obtained proteins was analyzed by SDS PAGE and staining with Gelcode blue (Thermo Scientific) and quantified using a BCA assay (Pierce, Thermo Scientific). For GFP yield determination based on whole cell fluorescence, cell pellets from 3 ml expressions were washed twice with 3 ml 4x PBS (by centrifugation for 10 min at 3320 x g at room temperature and resuspension) and fluorescence was determined using a Tecan M200 plate reader using and excitation wavelength of 475 nm and an emission wavelength of 510 nm. Fluorescence values were corrected for cell densities based on OD600 - measurements. […]

[4] = target: T4, PylRS_AF_L407A (Methanosarcina mazei, UniProt Q8PWY1, L407A/Y306A/Y384F); assay: PylRS_AF L407A-mediated amber suppression in GFP-Y39TAG (cellular GFP expression in E. coli); format: cell-based; conditions: pREP_PylRS_AF_L407A, pBAD_GFP-39TAG
T4 construct: expressed in transfected cells
Excerpt: as §2

[5] = target: T5, PylRS_GF (Methanosarcina mazei, UniProt Q8PWY1, Y306G/Y384F); assay: PylRS_GF-mediated amber suppression in GFP-Y39TAG (GFP expression in E. coli); format: cell-based; conditions: pREP-PylRS_GF (Y306G), pBAD_GFP-Y39TAG
T5 construct: expressed in transfected cells
Excerpt: as §2

[6] = Solubility of the ncAA; format: physicochemical; conditions: limited solubility
[7] = pBAD_GFP-39TAG, 1 mM ncAA, non-optimized conditions

T2 sequence (Q8PWY1 whole entry): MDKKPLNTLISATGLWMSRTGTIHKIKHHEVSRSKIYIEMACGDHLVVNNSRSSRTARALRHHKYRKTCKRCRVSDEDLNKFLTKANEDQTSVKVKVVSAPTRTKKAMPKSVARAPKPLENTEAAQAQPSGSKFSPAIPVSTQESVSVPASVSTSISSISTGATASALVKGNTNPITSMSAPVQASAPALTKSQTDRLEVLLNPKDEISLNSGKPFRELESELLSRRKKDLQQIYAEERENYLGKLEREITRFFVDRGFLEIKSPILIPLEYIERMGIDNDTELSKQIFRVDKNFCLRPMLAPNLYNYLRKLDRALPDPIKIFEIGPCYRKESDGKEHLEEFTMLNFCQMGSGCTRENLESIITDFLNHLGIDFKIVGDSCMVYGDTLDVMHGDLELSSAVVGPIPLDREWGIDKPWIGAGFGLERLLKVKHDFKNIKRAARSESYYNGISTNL
T1 sequence (Q8PWY1 whole entry Y306A/Y384F): as the sequence (Q8PWY1 whole entry) above, with Y306A, Y384F counted along it
T3 sequence (Q8PWY1 whole entry Y306A/Y384F/D408A): as the sequence (Q8PWY1 whole entry) above, with Y306A, Y384F, D408A counted along it
T4 sequence (Q8PWY1 whole entry Y306A/Y384F/L407A): as the sequence (Q8PWY1 whole entry) above, with Y306A, Y384F, L407A counted along it
T5 sequence (Q8PWY1 whole entry Y306G/Y384F): as the sequence (Q8PWY1 whole entry) above, with Y306G, Y384F counted along it

N[C@@H](CCCCNC(=O)c1nc2ccccc2nc1O)C(=O)O [Nε-(2-hydroxyquinoxaline-3-carbonyl)-L-lysine]
expression of full-length GFP by cellular fluorescence ([1]; pBAD_GFP-39TAG): no significant fluorescence increase compared to background

CC(C)(C)OC(=O)NCCCC[C@H](N)C(=O)O [ncAA 2, Nε-(tert-butyloxycarbonyl)-L-lysine, reference compound]
expression of full-length GFP by cellular fluorescence [2]: detected | cellular GFP expression [3]: significant levels | cellular GFP expression [4]: significant levels | GFP expression, SDS PAGE of Ni-NTA-purified GFP [1]: significant expression | GFP expression, SDS PAGE of Ni-NTA-purified GFP [5]: significant expression

N[C@@H](CCCCNC(=O)c1cnc2ccccc2n1)C(=O)O [ncAA 3, Nε-(quinoxaline-2-carbonyl)-L-lysine]
expression of full-length GFP by cellular fluorescence [2]: failure of amber suppression | GFP expression, SDS PAGE of Ni-NTA-purified GFP [2]: not recognized | yield of purified GFP-Y39→ncAA [1, 7]: 1.4 mg/L

N[C@@H](CCCCNC(=O)c1ccc2ccccc2n1)C(=O)O [ncAA 5, Nε-(quinoline-2-carbonyl)-L-lysine]
GFP expression, SDS PAGE of Ni-NTA-purified GFP [2]: not recognized | cellular GFP expression [3]: significant levels | cellular GFP expression [4]: significant levels | yield of purified GFP-Y39→ncAA ([1]; standard expression conditions): > 11 mg/L | yield of purified GFP-Y39→ncAA [1, 7]: 4.5 mg/L | GFP expression, SDS PAGE of Ni-NTA-purified GFP [1]: significant expression | GFP expression, SDS PAGE of Ni-NTA-purified GFP [5]: significant expression

N[C@@H](CCCCNC(=O)c1cc2ccccc2cn1)C(=O)O [ncAA 6, Nε-(isoquinoline-3-carbonyl)-L-lysine]
yield of purified GFP-Y39→ncAA [1, 7]: 1.4 mg/L | efficiency and accuracy of incorporation into peptides [1]: best results

N[C@@H](CCCCNC(=O)c1ccc2ccccc2c1)C(=O)O [ncAA 7, Nε-(naphtalene-2-carbonyl)-L-lysine]
solubility [6]: ~100 µM (≈ 30 µg/mL) | expression of full-length GFP by cellular fluorescence ([1]; pBAD_GFP-39TAG): no expression

(S)-2-amino-6-(((benzo[h]quinolin-2-ylmethoxy)carbonyl)amino) hexanoic acid [ncAA 8]
efficiency and accuracy of incorporation into peptides [1]: best results
